Experiments:
Hepatitis C virus [1] = test: Antiviral activity against Hepatitis C virus genotype 1b Con1 infected in human HuH7 cells assessed as GAPDH RNA or 18S rRNA level after 3 days selected with 40 nM HCV-796 and 800 nM boceprevir by qRT-PCR analysis relative to control; type: functional, organism-based, Hepacivirus hominis, Huh-7
Hepatitis C virus [2] = test: Antiviral activity against Hepatitis C virus genotype 1b Con1 infected in human HuH7 cells assessed as GAPDH RNA or 18S rRNA level after 3 days selected with 40 nM HCV-796 and 800 nM boceprevir by qRT-PCR analysis; type: functional, organism-based, Hepacivirus hominis; conditions: Con1, Huh-7, 72 h
Hepatitis C virus [3] = test: Antiviral activity against Hepatitis C virus genotype 1b Con1 infected in human HuH7 cells assessed as GAPDH RNA or 18S rRNA level after 3 days by qRT-PCR analysis; type: functional, organism-based, Hepacivirus hominis; conditions: Con1, Huh-7, 72 h
Hepatitis C virus [4] = test: Antiviral activity against Hepatitis C virus genotype 1b Con1 harboring C316Y and C445F mutations mutant infected in human HuH7.5 cells after 72 hrs by gaussia luciferase reporter assay relative to control; type: functional, Hepacivirus hominis, Huh-7
Hepatitis C virus [5] = test: Antiviral activity against Hepatitis C virus genotype 1b Con1 harboring V170A and C316Y mutations mutant infected in human HuH7.5 cells after 72 hrs by gaussia luciferase reporter assay relative to control; type: functional, Hepacivirus hominis, Huh-7
Hepatitis C virus [6] = test: Antiviral activity against Hepatitis C virus genotype 1b Con1 harboring NS5B C445F mutant infected in human HuH7.5 cells after 72 hrs by gaussia luciferase reporter assay relative to control; type: functional, Hepacivirus hominis, Huh-7
Hepatitis C virus [7] = test: Antiviral activity against Hepatitis C virus genotype 1b Con1 harboring NS5B I424V mutant infected in human HuH7.5 cells after 72 hrs by gaussia luciferase reporter assay relative to control; type: functional, Hepacivirus hominis, Huh-7
Hepatitis C virus [8] = test: Antiviral activity against Hepatitis C virus genotype 1b Con1 harboring NS5B C316Y mutant infected in human HuH7.5 cells after 72 hrs by gaussia luciferase reporter assay relative to control; type: functional, Hepacivirus hominis, Huh-7
Hepatitis C virus [9] = test: Antiviral activity against Hepatitis C virus genotype 1b Con1 harboring NS3 K583T mutant infected in human HuH7.5 cells after 72 hrs by gaussia luciferase reporter assay relative to control; type: functional, Hepacivirus hominis, Huh-7
Hepatitis C virus [10] = test: Antiviral activity against Hepatitis C virus genotype 1b Con1 harboring NS3 G282S mutant infected in human HuH7.5 cells after 72 hrs by gaussia luciferase reporter assay relative to control; type: functional, Hepacivirus hominis, Huh-7
Hepatitis C virus [11] = test: Antiviral activity against Hepatitis C virus genotype 1b Con1 harboring NS3 E176G mutant infected in human HuH7.5 cells after 72 hrs by gaussia luciferase reporter assay relative to control; type: functional, Hepacivirus hominis, Huh-7
Hepatitis C virus [12] = test: Antiviral activity against Hepatitis C virus genotype 1b Con1 harboring NS3 V170A mutant infected in human HuH7.5 cells after 72 hrs by gaussia luciferase reporter assay relative to control; type: functional, Hepacivirus hominis, Huh-7
Hepatitis C virus [13] = test: Antiviral activity against Hepatitis C virus genotype 1b Con1 harboring NS3 V158M mutant infected in human HuH7.5 cells after 72 hrs by gaussia luciferase reporter assay relative to control; type: functional, Hepacivirus hominis, Huh-7
Hepatitis C virus [14] = test: Antiviral activity against Hepatitis C virus genotype 1b Con1 infected in human HuH7.5 cells after 72 hrs by gaussia luciferase reporter assay; type: functional, organism-based, Hepacivirus hominis; conditions: Con1, Huh-7, 72 h
Hepatitis C virus [15] = test: Antiviral activity against Hepatitis C virus genotype 1b Con1 infected in human HuH7 cells assessed as GAPDH RNA or 18S rRNA level after 3 days selected with […] and 400 nM boceprevir by qRT-PCR analysis relative to control; type: functional, Hepacivirus hominis, Huh-7
Hepatitis C virus [16] = test: Antiviral activity against Hepatitis C virus genotype 1b Con1 infected in human HuH7 cells assessed as GAPDH RNA or 18S rRNA level after 3 days selected with […] and 400 nM boceprevir by qRT-PCR analysis; type: functional, organism-based, Hepacivirus hominis; conditions: Con1, Huh-7, 72 h
Hepatitis C virus [17] = test: Antiviral activity against Hepatitis C virus genotype 1b Con1 harboring NS3 V158M mutant infected in human HuH7.5 cells after 72 hrs by gaussia luciferase reporter assay; type: functional, organism-based, Hepacivirus hominis; conditions: Con1, Huh-7, 72 h
Hepatitis C virus [18] = test: Antiviral activity against Hepatitis C virus genotype 1b Con1 harboring NS3 V170A mutant infected in human HuH7.5 cells after 72 hrs by gaussia luciferase reporter assay; type: functional, organism-based, Hepacivirus hominis; conditions: Con1, Huh-7, 72 h
Hepatitis C virus [19] = test: Antiviral activity against Hepatitis C virus genotype 1b Con1 harboring NS3 E176G mutant infected in human HuH7.5 cells after 72 hrs by gaussia luciferase reporter assay; type: functional, organism-based, Hepacivirus hominis; conditions: Con1, Huh-7, 72 h
Hepatitis C virus [20] = test: Antiviral activity against Hepatitis C virus genotype 1b Con1 harboring NS3 G282S mutant infected in human HuH7.5 cells after 72 hrs by gaussia luciferase reporter assay; type: functional, organism-based, Hepacivirus hominis; conditions: Con1, Huh-7, 72 h
Hepatitis C virus [21] = test: Antiviral activity against Hepatitis C virus genotype 1b Con1 harboring NS3 K583T mutant infected in human HuH7.5 cells after 72 hrs by gaussia luciferase reporter assay; type: functional, organism-based, Hepacivirus hominis; conditions: Con1, Huh-7, 72 h
Hepatitis C virus [22] = test: Antiviral activity against Hepatitis C virus genotype 1b Con1 harboring NS5B C316Y mutant infected in human HuH7.5 cells after 72 hrs by gaussia luciferase reporter assay; type: functional, organism-based, Hepacivirus hominis; conditions: Con1, Huh-7, 72 h
Hepatitis C virus [23] = test: Antiviral activity against Hepatitis C virus genotype 1b Con1 harboring NS5B I424V mutant infected in human HuH7.5 cells after 72 hrs by gaussia luciferase reporter assay; type: functional, organism-based, Hepacivirus hominis; conditions: Con1, Huh-7, 72 h
Hepatitis C virus [24] = test: Antiviral activity against Hepatitis C virus genotype 1b Con1 harboring NS5B C445F mutant infected in human HuH7.5 cells after 72 hrs by gaussia luciferase reporter assay; type: functional, organism-based, Hepacivirus hominis; conditions: Con1, Huh-7, 72 h
Hepatitis C virus [25] = test: Antiviral activity against Hepatitis C virus genotype 1b Con1 harboring V170A and C316Y mutations mutant infected in human HuH7.5 cells after 72 hrs by gaussia luciferase reporter assay; type: functional, organism-based, Hepacivirus hominis; conditions: Con1, Huh-7, 72 h
Hepatitis C virus [26] = test: Antiviral activity against Hepatitis C virus genotype 1b Con1 harboring C316Y and C445F mutations mutant infected in human HuH7.5 cells after 72 hrs by gaussia luciferase reporter assay; type: functional, organism-based, Hepacivirus hominis; conditions: Con1, Huh-7, 72 h

CC(=O)c1cc(F)c(Cl)cc1NCC(=O)Nc1ccccc1C(=O)O
Ratio IC50 (Hepatitis C virus [1]): >15
EC50 (Hepatitis C virus [2]): > 20000 nM
EC50 (Hepatitis C virus [3]): 1310 nM

CC(=O)c1cc(F)c(Br)cc1NCC(=O)Nc1ccccc1C(=O)O
EC50 (Hepatitis C virus [1]; Hepatitis C virus, Con1, Huh-7, 72 h): > 30 nM
EC50 (Hepatitis C virus [2]): > 15000 nM
EC50 (Hepatitis C virus [3]): 499 nM

CCC[C@]1(CC(=O)O)OCCc2c1[nH]c1c(C)ccc(C#N)c21
Ratio IC50 (Hepatitis C virus [1]): 2
EC50 (Hepatitis C virus [2]): 7840 nM

C[C@@]1(O)[C@H](O)[C@@H](CO)O[C@H]1n1ccc(N)nc1=O
Ratio IC50 (Hepatitis C virus [1]): 1
EC50 (Hepatitis C virus [2]): 1620 nM
EC50 (Hepatitis C virus [3]): 1140 nM

CO[C@H]1/C=C\C=C(/C)C(=O)NC2=CC(=O)C(NCCN(C)C)=C(C[C@@H](C)C[C@H](OC)[C@H](O)[C@@H](C)/C=C(\C)[C@@H]1OC(N)=O)C2=O [ALVESPIMYCIN]
Ratio IC50 (Hepatitis C virus [1]): 3
EC50 (Hepatitis C virus [2]): 3.1 nM
EC50 (Hepatitis C virus [3]): 1.2 nM

CC(C)(C)NC(=O)N[C@H](C(=O)N1C[C@H]2[C@@H]([C@H]1C(=O)NC(CC1CCC1)C(=O)C(N)=O)C2(C)C)C(C)(C)C (some centres undefined) [BOCEPREVIR]
Ratio IC50 (Hepatitis C virus [4]): 1
Ratio IC50 (Hepatitis C virus [5]): 7
Ratio IC50 (Hepatitis C virus [6]): 1
Ratio IC50 (Hepatitis C virus [7]): 1
Ratio IC50 (Hepatitis C virus [8]): 1
Ratio IC50 (Hepatitis C virus [9]): 1
Ratio IC50 (Hepatitis C virus [10]): 3
Ratio IC50 (Hepatitis C virus [11]): 4
Ratio IC50 (Hepatitis C virus [12]): 5
Ratio IC50 (Hepatitis C virus [13]): 1
EC50 (Hepatitis C virus [14]): 608 nM
Ratio IC50 (Hepatitis C virus [1]): 10
EC50 (Hepatitis C virus [2]): 1580 nM
Ratio IC50 (Hepatitis C virus [15]): 8
EC50 (Hepatitis C virus [3]): 165 nM
EC50 (Hepatitis C virus [16]): 1330 nM
EC50 (Hepatitis C virus [17]): 377 nM
EC50 (Hepatitis C virus [18]): 3170 nM
EC50 (Hepatitis C virus [19]): 2150 nM
EC50 (Hepatitis C virus [20]): 1940 nM
EC50 (Hepatitis C virus [21]): 738 nM
EC50 (Hepatitis C virus [22]): 781 nM
EC50 (Hepatitis C virus [23]): 647 nM
EC50 (Hepatitis C virus [24]): 795 nM
EC50 (Hepatitis C virus [25]): 4360 nM
EC50 (Hepatitis C virus [26]): 821 nM

COC1=C2C[C@@H](C)C[C@H](OC)[C@H](O)[C@@H](C)/C=C(\C)[C@H](OC(N)=O)[C@@H](OC)/C=C\C=C(/C)C(=O)NC(=CC1=O)C2=O [GELDANAMYCIN]
Ratio IC50 (Hepatitis C virus [1]): 5
EC50 (Hepatitis C virus [2]): 1.2 nM
EC50 (Hepatitis C virus [3]): 0.25 nM

CNC(=O)c1c(-c2ccc(F)cc2)oc2cc(N(CCO)S(C)(=O)=O)c(C3CC3)cc12 [NESBUVIR]
Ratio IC50 (Hepatitis C virus [4]): 1834
Ratio IC50 (Hepatitis C virus [5]): 95
Ratio IC50 (Hepatitis C virus [6]): 8
Ratio IC50 (Hepatitis C virus [7]): 1
Ratio IC50 (Hepatitis C virus [8]): 138
Ratio IC50 (Hepatitis C virus [9]): 1
Ratio IC50 (Hepatitis C virus [10]): 2
Ratio IC50 (Hepatitis C virus [11]): 3
Ratio IC50 (Hepatitis C virus [12]): 1
Ratio IC50 (Hepatitis C virus [13]): 1
EC50 (Hepatitis C virus [14]): 14 nM
Ratio IC50 (Hepatitis C virus [1]): 1403
EC50 (Hepatitis C virus [2]): 3370 nM
Ratio IC50 (Hepatitis C virus [15]): 1025
EC50 (Hepatitis C virus [3]): 2.4 nM
EC50 (Hepatitis C virus [16]): 2460 nM
EC50 (Hepatitis C virus [17]): 9 nM
EC50 (Hepatitis C virus [18]): 13 nM
EC50 (Hepatitis C virus [19]): 38 nM
EC50 (Hepatitis C virus [20]): 22 nM
EC50 (Hepatitis C virus [21]): 15 nM
EC50 (Hepatitis C virus [22]): 1940 nM
EC50 (Hepatitis C virus [23]): 13 nM
EC50 (Hepatitis C virus [24]): 114 nM
EC50 (Hepatitis C virus [25]): 1340 nM
EC50 (Hepatitis C virus [26]): 25700 nM

— ChEMBL document CHEMBL1687718, “Selection and characterization of hepatitis C virus replicons dually resistant to the polymerase and protease inhibitors HCV-796 and boceprevir (SCH 503034)” (Antimicrob Agents Chemother, 2009)
